Test [1] deals with beta-amyloid (Aβ). Kind of test: Amount of Aβ in the brain of Tg2576 mice injected with S. aureus bacterial DNA, with or without DNase (sandwich ELISA). Format: in vivo, mice (line Tg2576). The text has this:
The effect on the model of increased gut permeability in mice was studied. Increased gut permeability allows increased levels of bacterial DNA in the blood circulation, leading to the increase in the level of beta amyloid (Bala, S. et al., 2014; DiBiagio, J. R. et al., 2016). DNAse prevents the appearance of a thermostable protein formed by the extracellular DNA.
Hemizygous transgenic mice expressing familial Alzheimer's disease mutant human (line Tg2576, Hsiao et al., 1996). A total of 70 male mice were used. To identify beta-amyloid (AB) amount, one quarter brain from each animal was homogenized in 70% formic acid at a weight: volume ratio of 100 mg/ml. The homogenate was sonicated for 2 min and centrifuged at 100,000 g for 1 h. After centrifugation, the supernatant fraction was removed and neutralized with 19 vol of Tris-phosphate buffer. Samples were analyzed by a modified sandwich ELISA that detects total AB. To detect human Aβ, aliquots of homogenate were added to Nunc Maxisorb plates coated with monoclonal antibody 6E10 (Senetek) capture antibody. After incubation at 4° C. overnight, human Ab was detected by monoclonal antibody 4G8 (Senetek) conjugated to horseradish peroxidase (HRP). After washing with PBS containing 0.05% Tween 20, the bound peroxidase was detected by the TMB peroxidase kit (Kirkegaard & Perry). Plates were read at 450 nm in a standard plate reader, and unknowns were quantified by comparison to known quantities of freshly dissolved Ab40 (Bachem).
Animals were injected daily, with increasing concentrations of S. aureus bacterial DNA. Control animals were injected with sterile water. DNase (2000 Kunitz units) was administered orally or by IV on day 1.

The test system of test [2] is microbial amyloid. Format: cell-based, Escherichia coli.
In test [3] the test system is amyloid producing Escherichia coli strain VT-156. Format: cell-based.
In test [4] the test system is non-amyloid producer Escherichia coli strain RA-74. Type of test: cell-based.
The subject of test [5] is SU-DHL4 target cell lines. Kind of test: Antibody-dependent cell-mediated cytotoxicity (ADCC) assay. Particulars: SU-DHL4 target cells. Format: cell-based. As to the method: The efficacies of Rituximab and Rituximab-Mod were compared based on Binding to CD20-expressing target cells and antibody-dependent cell-mediated cytotoxicity [ADCC] assays.
The binding of Rituximab-Mod and rituximab was assessed on SU-DHL4 cell lines with high (1,000,000) CD20 receptor copy numbers. […] The ability of Rituximab-Mod and rituximab to mediate ADCC was assessed using SU-DHL4 target cell lines. The potency of Rituximab-Mod was higher than that of rituximab.

In test [6] the test system is HSV-1. Type of test: cell-based, human Herpes Virus 1.

As to DNase, the “Total Aβ in the brain” value amounted to 94 ± 23 pmol/mg in test [1] (DNA 5 mcg + DNase 5 mcg IV), 103 ± 35 pmol/mg in test [1] (DNA 5 mcg + DNase 5 mcg PO), 73 ± 12 pmol/mg in test [1] (DNA 20 mcg + DNase 5 mcg IV) and 95 ± 12 pmol/mg in test [1] (DNA 20 mcg + DNase 5 mcg PO).

`CCN(CC)CCCC(C)Nc1c2ccc(Cl)cc2nc2ccc(OC)cc12` (stereo not shown) [Quinacrine]: the “decrease in CR binding” value in test [2] is “about 40%”. Also, in test [3], the “Bacterial OD (570 nm)” value was found to be 0.657. The “Bacterial OD (570 nm), Escherichia coli strain RA-74” value in test [4] is given as 1.406.

Regarding rituximab, the “EC50 of target cell killing (ADCC)” value in test [5] was approximately 0.01 µg/mL.

As for `C=CC[C@@H]1/C=C(\C)C[C@H](C)C[C@H](OC)[C@H]2O[C@@](O)(C(=O)C(=O)N3CCCC[C@H]3C(=O)O[C@H](/C(C)=C/[C@@H]3CC[C@@H](O)[C@H](OC)C3)[C@H](C)[C@@H](O)CC1=O)[C@H](C)C[C@@H]2OC` [Tacrolimus], the “decrease in CR binding” value in test [2] is recorded as “about 40%”. Further, the “Bacterial OD (570 nm)” value in test [3] worked out at 0.678. In test [6], the “Number (%) of unaltered cells, Herpes virus of type I” value is 30% and the “antiviral activity against the herpes virus (type I)” value is reported as “has the antiviral activity”. For the same compound, the “Bacterial OD (570 nm), Escherichia coli strain RA-74” value in test [4] was 1.382.

Take Pentosan polysulfate: the “decrease in CR binding” value in test [2] was “about 40%”. In addition, in test [3], the “Bacterial OD (570 nm), Escherichia coli strain VT-56” value stood at 0.547. Besides, the “Bacterial OD (570 nm), Escherichia coli strain RA-74” value in test [4] is 1.416.

The record behind these values is US12535491B2, “Vaccine comprising protein-targeted (PT) extracellular DNA isolated from bacterial matrix” (priority 2018, dated 2026).
